Measurements reported in patent US9814696B2, “Use of coumarin derivatives for the preparation of drugs for treating skin diseases” (UNIVERSITE PIERRE ET MARIE CURIE (PARIS 6), priority 2011, dated 2017).
Like-named read-outs stand apart in the source and are kept apart here.

Legend:
KLK5 = target: T1, KLK5 (Homo sapiens, UniProt Q9Y337); experiment: KLK5 enzyme inhibition assay, fluorogenic substrate Boc-Val-Pro-Arg-AMC; format: biochemical
T1 sequence (Q9Y337 23-293): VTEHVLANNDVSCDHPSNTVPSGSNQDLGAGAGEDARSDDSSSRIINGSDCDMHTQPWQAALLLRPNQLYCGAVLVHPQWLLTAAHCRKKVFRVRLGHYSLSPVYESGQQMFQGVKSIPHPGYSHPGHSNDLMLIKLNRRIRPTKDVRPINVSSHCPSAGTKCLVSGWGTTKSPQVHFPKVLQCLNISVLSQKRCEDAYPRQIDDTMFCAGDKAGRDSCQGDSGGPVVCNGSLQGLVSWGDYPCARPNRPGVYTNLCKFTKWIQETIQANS
Description: (§1) Kallikreins KLK5, KLK7 and KLK14 activities were determined by monitoring the hydrolysis of the appropriate fluorogenic substrate (λexc=355, λem=460 nm) for 15 min at 37° C. in the presence of the untreated kallikrein (control) or kallikrein that had been incubated with a test compound. Substrate and compounds were previously dissolved in DMSO, with the final solvent concentration kept constant at 2% (v/v) (KLK 5 and 14), and 4% (v/v) (KLK7). The composition of the activity buffers (pH 8.0) was 100 mM Tris-HCl, 150 mM NaCl, 0.01% (v/v) Tween 20 for the KLK5 assay, and 100 mM Tris-HCl, 1M NaCl, 0.01% (v/v) Tween 20 in the KLK 7 and 14 assays. The final concentrations were 0.6 nM (KLK5) and 100 μM (Boc-Val-Pro-Arg-AMC) (KLK5 assay), 8 nM (KLK7) and 40 μM (Suc-Leu-Leu-Val-Tyr-AMC, AMC: 7-amino-4-methyl-coumarin) (KLK7 assay), and 0.17 nM (KLK14) and 10 μM (Boc-Val-Pro-Arg-AMC) (KLK14 assay). Using the appropriate substrate, the coumarinic compounds (0.01-100 μM) were tested in duplicate for each inhibitor concentration to detect their inhibitory potential. The enzyme and the inhibitors were incubated for 15 min before the determination of the enzyme activity. Initial rates determined in control experiments (V0) were considered to be 100% of the peptidase activity; initial rates below 100% were considered to be inhibitions. The inhibitory activity of compounds was expressed as IC50 (inhibitor concentrations giving 50% inhibition). The values of IC50 were calculated by fitting the experimental data to the equation: % Inhibition=100×(1−Vi/V0)=100[I]0/(IC50+[I]0), or equation: % Inhibition=100[I]0^nH/(IC50^nH+[I]0^nH),nH is the Hill number.
(§2) The tests were realized at 37° C. after 15 min of incubation at pH 8.

[1] = test system: normal human keratinocytes; experiment: Neutral red uptake (NRU) cytotoxicity test / cell viability; format: cell-based; parameters: cytotoxicity, neutral red uptake test (FIG. 5): dose or concentration left out as unconfirmed; conditions: 48 h, human normal keratinocytes; for cytotoxicity, neutral red uptake test: 1 and 10 μM
Text: The NRU cytotoxicity assay procedure is a cell survival/viability chemosensitivity assay based on the ability of viable cells to incorporate and bind neutral red (NR), a supravital dye. NR is a weak cationic dye that readily penetrates cell membranes by non-ionic diffusion and accumulates intracellularly in lysosomes. Alterations of the cell surface or the sensitive lysosomal membrane lead to lysosomal fragility and other changes that gradually become irreversible. Such changes caused by the action of xenobiotics result in a decreased uptake and binding of NR. It is thus possible to distinguish between viable, damaged, or dead cells, which is the basis of this assay. After treatment with the small-molecules inhibitors, NR uptake in cells will be measured by spectrophotometry at 540±10 nm.
Keratinocytes from healthy persons or patients with Netherton syndrome are seeded at the density of 4000 cells in 125 μL of medium per well in 96-well plates.
After seeding, cells are incubated for 48 hours in the following experimental conditions: 37° C.±1° C., 90%±5.0% humidity, and 5%±1% CO2/air. This incubation period allows for cell recovery and adherence and progression to exponential growth phase.
Prepare inhibitors solutions 2-fold more concentrated than desired. Add 125 μL of these solutions to the wells without changing or removing the medium (125 μL).
48 h hours after the beginning of the treatment, carefully remove the medium (containing the tested inhibitor) and rinse the cells very carefully with 250 μL pre-warmed PBS.
Add 250 μL NR medium and incubate (37° C.±1° C., 90%±5% humidity, and 5.0%±1% CO2/air) for 3±0.1 h. NR medium is the culture medium containing 33 μg/mL of NR. After incubation, remove the NR medium, and carefully rinse cells with 250 μL pre-warmed PBS.
Measure the absorption (within 60 minutes after adding NR Desorb solution) of the resulting colored solution at 540 nm±10 nm in a microtiter plate reader (spectrophotometer), using the blank as a reference.
A calculation of cell viability expressed as NRU is made for each concentration of the tested inhibitor by using the mean NRU of the three replicate values per each concentration. This value is compared with the mean NRU of all vehicle values. Relative cell viability is then expressed as percent of untreated vehicle control (DMSO).
Normal human keratinocytes were seeded in a 96-well tissue culture plate. At 20% of confluence, molecules were added in the culture medium and incubated for 48 h. Neutral red medium was added to every well for an incubation period of 3 h, then the dye was extracted with acidified ethanol solution. Data (FIGS. 2 and 3) represent the mean cell viability after treatment +/−SD compared to mean viability of cells treated with the vehicle only (DMSO). Data represent the mean of 5 individual experiments.

KLK14 = target: T2, KLK14 (Homo sapiens, UniProt Q9P0G3); experiment: KLK14 enzyme inhibition assay, fluorogenic substrate Boc-Val-Pro-Arg-AMC; format: biochemical; conditions: 37° C., 15 min of incubation, pH 8
T2 sequence (Q9P0G3 25-251): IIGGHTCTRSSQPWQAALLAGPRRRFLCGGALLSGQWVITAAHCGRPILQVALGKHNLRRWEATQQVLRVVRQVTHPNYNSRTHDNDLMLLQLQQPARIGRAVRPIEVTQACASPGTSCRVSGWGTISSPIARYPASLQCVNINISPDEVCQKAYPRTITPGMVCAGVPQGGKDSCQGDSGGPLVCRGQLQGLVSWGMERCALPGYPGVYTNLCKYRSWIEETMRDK
Description: as §1, §2

[2] = test system: keratinocytes from a Netherton syndrome patient (NSK); experiment: Expression of pro-allergic and inflammatory molecules (indirect KLK5 activity) in Netherton syndrome patient keratinocytes; format: cell-based, human; conditions: 72 h, relative to HPRT
Description: 250,000 keratinocytes from a Netherton syndrome patient (NSK) were seeded in 6 well plates in 2 mL of medium made of: (a) half of complete Green medium: (Dulbecco's Modified Eagle Media) 60%; Ham's F12 30%; FCS 10%; adenin […]; insulin 5 μg/mL; hydrocortisone 0.4 μg/mL; cholera toxin 10 nM; triiodothyronin 2 nM; human recombinant EGF 10 ng/mL; penicillin G/streptomycin 100 U/mL; (b) half of a basal medium (Epilife—Cascade Biologics).
When confluent, cells were washed 5 times with PBS and 2 mL of complete Green medium without FCS (fetal calf serum) were added per well.
Inhibitors were added in the culture medium 24 h after medium renewal.
350 μL of RLT lysis buffer (Mini Kit QIAGEN)+β-mercapto-ethanol (0.1%) were added per well to extract total RNA. The cell lysate was kept at −80° C. before RNA extraction (Mini Kit QIAGEN).
In this in cellulo test, KLK5 activity was evaluated by an indirect method. Indeed KLK5 induces TSLP (thymic stromal lymphopoietin), TNFα (tumor necrosis factor alpha) and IL-8 (interleukin 8) expression. If KLK5 activity is inhibited, the expression of these cytokines will be reduced.
The relative amount of TSLP, TNFα and IL-8 transcripts [relative to HPRT (hypoxanthine phosphoribosyltransferase 1) housekeeping gene] was compared between cells treated or not treated with the inhibitors. The ratio <<treated/not treated>> relative to housekeeping gene reflects KLK5 inhibition.
Their expression had also been studied even if their mechanism of induction is not known yet.
The effect of LP73 and CFL33 on the expression of the described pro-allergic and inflammatory cytokines was analyzed on keratinocytes from two different NS patients. Each experiment was performed twice (FIG. 4).

KLK7 = KLK7 (Homo sapiens, UniProt P49862); experiment: KLK7 enzyme inhibition assay, fluorogenic substrate Suc-Leu-Leu-Val-Tyr-AMC; format: biochemical; conditions: for inhibition at 50 µM / IC50: 37° C., 15 min of incubation, pH 8; for selective activity against enzyme: KLK7: Table B, among KLK5, KLK7 and KLK14
Description: as §1, §2

[3] = test system: total protease activity of transgenic KLK5 mice skin section; experiment: In situ zymography on transgenic KLK5 mice skin section; format: biochemical; conditions: 5 μM
Description: FIG. 6 illustrates the effect of JFR9 compound (5 μM) efficacy on the total protease activity of transgenic KLK5 mice skin section, by in situ zymography.
The protease activity is shown with a gradient of fluorescence. The fluorescence intensity represents the cleavage efficiency of a casein substrate coupled to a FITC group.
JFR9 efficacy has been assayed on transgenic KLK5 mice skin section by in situ zymography (FIG. 6). These mice overexpress KLK5 and reproduce the phenotypic characteristics of Netherton syndrome.

[4] = Table A2, read-out: IC50 (nM) KLK7
[5] = Table A, read-out: IC50 (μM) KLK7

Sequence of KLK7 (P49862 30-253): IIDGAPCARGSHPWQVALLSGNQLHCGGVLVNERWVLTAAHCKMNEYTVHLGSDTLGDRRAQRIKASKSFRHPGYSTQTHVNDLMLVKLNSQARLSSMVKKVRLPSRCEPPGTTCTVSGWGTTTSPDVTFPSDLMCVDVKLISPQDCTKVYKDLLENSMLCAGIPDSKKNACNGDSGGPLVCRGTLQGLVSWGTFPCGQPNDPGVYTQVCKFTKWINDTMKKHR

SMILES: O=C(Oc1nccc2ccccc12)c1cc2ccccc2oc1=O [CFL33, Isoquinolin-1-yl 2-oxo-2H-1-benzopyran-3-carboxylate]
- IC50 (KLK5; Table A, 37° C., 15 min of incubation, pH 8, read-out: IC50 (μM) KLK5): 7 ± 0.4 µM
- selective activity against enzyme: KLK5 (KLK5; Table B, among KLK5, KLK7 and KLK14): KLK5
- cytotoxicity, neutral red uptake test [1]: No noticeable cytotoxicity
- inhibition at 100 µM (KLK14): 61%
- expression of IL-8 ([2]; 1 μM): significantly inhibited
- expression of MDC ([2]; 1 μM): significantly inhibited
- expression of TARC ([2]; 1 μM): significantly inhibited

SMILES: O=C(Oc1cccc2ccccc12)c1cc2ccccc2oc1=O [JFR1, 1-Naphthyl 2-oxo-2H-1-benzopyran-3-carboxylate]
- melting point: 159 to 160 °C
- inhibition at 50 µM (KLK7): 53%
- selective activity against enzyme: KLK7 (KLK7): KLK7

SMILES: O=C(Oc1ccc2ccccc2c1)c1cc2ccccc2oc1=O [JFR2, 2-Naphthyl 2-oxo-2H-1-benzopyran-3-carboxylate]
- melting point: 166 to 167 °C
- inhibition at 50 µM (KLK7): 30%
- selective activity against enzyme: KLK7 (KLK7): KLK7

SMILES: O=C(Oc1ccc(Cl)cc1)c1cc2cc(CF)ccc2oc1=O [JFR7, 4-Chlorophenyl 6-fluoromethyl-2-oxo-2H-1-benzopyran-3-carboxylate]
- melting point: 216 to 218 °C
- inhibition at 50 µM (KLK7): 30%
- selective activity against enzyme: KLK7 (KLK7): KLK7

SMILES: O=C(Oc1cccc(Cl)c1)c1cc2cc(CBr)ccc2oc1=O [JFR9, 3-Chlorophenyl 6-bromomethyl-2-oxo-2H-1-benzopyran-3-carboxylate]
- IC50 (KLK5; Table A2, 37° C., 15 min of incubation, pH 8, read-out: IC50 (nM) KLK5): 0.92 ± 0.07 µM
- cytotoxicity, neutral red uptake test (FIG. 5) [1]: No noticeable cytotoxicity
- IC50 (KLK7; [4]): 63.7 ± 1.7 nM
- selective activity against enzyme: KLK7 (KLK7): KLK7
- IC50 (KLK14; Table A2, read-out: IC50 (nM) KLK14): 2900 ± 100 nM
- total protease activity of skin section (casein-FITC cleavage) [3]: decreased significantly

SMILES: O=C(Oc1cccc(Cl)c1Cl)c1cc2cc(CCl)ccc2oc1=O [LP73]
- cytotoxicity, neutral red uptake test [1]: No noticeable cytotoxicity
- IC50 (KLK7; [5]): 63 ± 4 nM
- selective activity against enzyme: KLK7 (KLK7): KLK7
- expression of IL-8 ([2]; 1 μM): significantly inhibited
- expression of MDC ([2]; 1 μM): significantly inhibited
- expression of TARC ([2]; 1 μM): significantly inhibited
- expression of TNFα ([2]; 1 μM): significantly inhibited
- expression of TSLP ([2]; 1 μM): significantly inhibited
- expression of TARC ([2]; 10 μM): inhibited
- expression of TSLP ([2]; 10 μM): inhibited

SMILES: O=C(Oc1ccccc1)c1cc2cc(CCl)ccc2oc1=O [MFS7]
- inhibition at 50 µM (KLK5; 50 μM, 37° C., 15 min of incubation, pH 8): 26%
- cytotoxicity, neutral red uptake test [1]: No noticeable cytotoxicity
- IC50 (KLK7; [5]): 235 ± 9 nM
- selective activity against enzyme: KLK7 (KLK7): KLK7
- inhibition at 100 µM (KLK14): 45%

SMILES: O=C(Oc1cccnc1)c1cc2cc(CCl)ccc2oc1=O [MFS33]
- inhibition at 100 µM (KLK5; 100 μM, 37° C., 15 min of incubation, pH 8): 62%
- cytotoxicity, neutral red uptake test [1]: No noticeable cytotoxicity
- IC50 (KLK7; [4]): 5.7 ± 0.3 nM
- inhibition at 100 µM (KLK14): 60%
